The test system of this test is MV-4-11 cells. The experiment in a line: Gene expression microarray analysis (Affymetrix PrimeView) and GSEA. The test is classed as cell-based, human. Further details: RFU PODN (11730768_x_at) / Fold change /veh PODN (11730768_x_at) / RFU LINC00158 (11744669_a_at) / Fold change /veh LINC00158 (11744669_a_at) / RFU DUSP10 (11751237_a_at) / Fold change /veh DUSP10 (11751237_a_at) / RFU ID3 (11757404_x_at) / Fold change /veh ID3 (11757404_x_at) / RFU PLEKHG5 (11737974_s_at) / Fold change /veh PLEKHG5 (11737974_s_at) / RFU LRRC4B (11730491_at) / Fold change /veh LRRC4B (11730491_at) / RFU GIMAP4 (11747438_a_at) / Fold change /veh GIMAP4 (11747438_a_at) / RFU KRT8 (11758183_x_at) / Fold change /veh KRT8 (11758183_x_at) / RFU CNN1 (11734310_a_at) / Fold change /veh CNN1 (11734310_a_at) / RFU VPS37D (11726825_at) / Fold change /veh VPS37D (11726825_at) / RFU C10orf10 (11716522_x_at) / Fold change /veh C10orf10 (11716522_x_at) / RFU KIR2DL2 /// KIR2DL4 /// KIR2DL5A /// KIR2DL5B /// KIR2DS1 /// KIR2DS2 /// KIR2DS3 /// KIR2DS4 /// KIR3DL3 /// KIR3DL3 /// KIR3DS1 (11738374_at) / Fold change /veh KIR2DL2 /// KIR2DL4 /// KIR2DL5A /// KIR2DL5B /// KIR2DS1 /// KIR2DS2 /// KIR2DS3 /// KIR2DS4 /// KIR3DL3 /// KIR3DL3 /// KIR3DS1 (11738374_at) / RFU C1QL1 (11718748_at) / Fold change /veh C1QL1 (11718748_at) / RFU TMPRSS4 (11747572_a_at) / Fold change /veh TMPRSS4 (11747572_a_at) / RFU HAMP (11756126_x_at) / Fold change /veh HAMP (11756126_x_at) / RFU RNFT2 (11725882_a_at) / Fold change /veh RNFT2 (11725882_a_at) / RFU NR4A2 (11747474_a_at) / Fold change /veh NR4A2 (11747474_a_at) / RFU ABCC12 (11746883_a_at) / Fold change /veh ABCC12 (11746883_a_at) / RFU TMEM136 (11760407_x_at) / Fold change /veh TMEM136 (11760407_x_at) / RFU CLDN22 /// WWC2 (11732394_at) / Fold change /veh CLDN22 /// WWC2 (11732394_at) / RFU HLA-DPB1 (11760878_x_at) / Fold change /veh HLA-DPB1 (11760878_x_at) / RFU SPINT1 (11716480_a_at) / Fold change /veh SPINT1 (11716480_a_at) / RFU GAP43 (11754022_s_at) / Fold change /veh GAP43 (11754022_s_at) / RFU A4GNT (11735810_at) / Fold change /veh A4GNT (11735810_at) / RFU PRB3 (11715151_x_at) / Fold change /veh PRB3 (11715151_x_at) / RFU TUBB4B (11761932_at) / Fold change /veh TUBB4B (11761932_at) / RFU CAPN14 (11732068_a_at) / Fold change /veh CAPN14 (11732068_a_at) / RFU TMCC2 (11721928_a_at) / Fold change /veh TMCC2 (11721928_a_at) / RFU IRGQ (11745062_a_at) / Fold change /veh IRGQ (11745062_a_at) / RFU FAM174B (11720279_a_at) / Fold change /veh FAM174B (11720279_a_at) / RFU TMPRSS4 (11748680_a_at) / Fold change /veh TMPRSS4 (11748680_a_at) / RFU FAM212B (11763350_a_at) / Fold change /veh FAM212B (11763350_a_at) / RFU PLEKHG5 (11743358_a_at) / Fold change /veh PLEKHG5 (11743358_a_at) / RFU ZSCAN30 (11745921_a_at) / Fold change /veh ZSCAN30 (11745921_a_at) / RFU CMKLR1 (11741424_a_at) / Fold change /veh CMKLR1 (11741424_a_at) / RFU LOC101060620 /// MAPK8IP1 (11723275_at) / Fold change /veh LOC101060620 /// MAPK8IP1 (11723275_at) / RFU SPTSSB (11747773_x_at) / Fold change /veh SPTSSB (11747773_x_at) / RFU PRSS12 (11739890_at) / Fold change /veh PRSS12 (11739890_at) / RFU BIN1 (11741810_x_at) / Fold change /veh BIN1 (11741810_x_at) / RFU WNT11 (11732464_a_at) / Fold change /veh WNT11 (11732464_a_at) / RFU C10orf10 (11716521_a_at) / Fold change /veh C10orf10 (11716521_a_at) / RFU C5orf56 (11738089_at) / Fold change /veh C5orf56 (11738089_at) / RFU CYB561 (11721691_x_at) / Fold change /veh CYB561 (11721691_x_at) / RFU ANKRD19P (11752326_a_at) / Fold change /veh ANKRD19P (11752326_a_at) / RFU OR2T12 /// OR2T33 /// OR2T8 (11738714_s_at) / Fold change /veh OR2T12 /// OR2T33 /// OR2T8 (11738714_s_at) / RFU VCAN (11748164_a_at) / Fold change /veh VCAN (11748164_a_at) / RFU JSRP1 (11732532_at) / Fold change /veh JSRP1 (11732532_at) / RFU KRTAP10-11 (11738290_x_at) / Fold change /veh KRTAP10-11 (11738290_x_at) / RFU MYO3A (11730013_a_at) / Fold change /veh MYO3A (11730013_a_at) / RFU EBF3 (11725865_a_at) / Fold change /veh EBF3 (11725865_a_at) / RFU CAMK2N1 (11719241_x_at) / Fold change /veh CAMK2N1 (11719241_x_at) / RFU C5orf56 (11738088_a_at) / Fold change /veh C5orf56 (11738088_a_at) / RFU OLFML3 (11715873_a_at) / Fold change /veh OLFML3 (11715873_a_at) / RFU LOC100653217 /// NTM (11731650_a_at) / Fold change /veh LOC100653217 /// NTM (11731650_a_at) / RFU MAPK11 (11762145_a_at) / Fold change /veh MAPK11 (11762145_a_at) / RFU FIZ1 (11724087_x_at) / Fold change /veh FIZ1 (11724087_x_at) / RFU OASL (11726364_x_at) / Fold change /veh OASL (11726364_x_at) / RFU SOX15 (11748057_x_at) / Fold change /veh SOX15 (11748057_x_at) / RFU CD79A (11719716_a_at) / Fold change /veh CD79A (11719716_a_at) / RFU HIST1H1D (11736915_at) / Fold change /veh HIST1H1D (11736915_at) / RFU CASKIN2 (11723855_a_at) / Fold change /veh CASKIN2 (11723855_a_at) / RFU LOC730098 (11760151_x_at) / Fold change /veh LOC730098 (11760151_x_at) / RFU OR4N2 (11742367_at) / Fold change /veh OR4N2 (11742367_at) / RFU PRRT2 (11749266_a_at) / Fold change /veh PRRT2 (11749266_a_at) / RFU SNX32 (11753110_a_at) / Fold change /veh SNX32 (11753110_a_at) / RFU CDHR5 (11726645_a_at) / Fold change /veh CDHR5 (11726645_a_at) / RFU RCAN1 (11760418_a_at) / Fold change /veh RCAN1 (11760418_a_at) / RFU FAM167A (11723789_a_at) / Fold change /veh FAM167A (11723789_a_at) / RFU FAM26E (11764081_at) / Fold change /veh FAM26E (11764081_at) / RFU ISYNA1 (11749810_s_at) / Fold change /veh ISYNA1 (11749810_s_at) / RFU ACY1 (11761880_at) / Fold change /veh ACY1 (11761880_at) / RFU 11764098_at / Fold change /veh 11764098_at / RFU SAMD14 (11745864_x_at) / Fold change /veh SAMD14 (11745864_x_at) / RFU NPB (11741838_a_at) / Fold change /veh NPB (11741838_a_at) / RFU TMPRSS6 (11731388_a_at) / Fold change /veh TMPRSS6 (11731388_a_at) / RFU KRTAP10-2 (11738614_at) / Fold change /veh KRTAP10-2 (11738614_at) / RFU ARHGAP8 /// PRR5-ARHGAP8 (11727945_x_at) / Fold change /veh ARHGAP8 /// PRR5-ARHGAP8 (11727945_x_at) / RFU KRTAP5-7 /// NADSYN1 (11734609_at) / Fold change /veh KRTAP5-7 /// NADSYN1 (11734609_at) / RFU RASL12 (11751679_a_at) / Fold change /veh RASL12 (11751679_a_at) / RFU CDKN2B (11736163_a_at) / Fold change /veh CDKN2B (11736163_a_at) / RFU PRF1 (11729649_at) / Fold change /veh PRF1 (11729649_at) / RFU, ZNF638 /// ZNF638-IT1 / Fold change vs veh, ZNF638 /// ZNF638-IT1 / RFU, PANK3 / Fold change vs veh, PANK3 / RFU, SH3YL1 / Fold change vs veh, SH3YL1 / RFU, ZEB2 / Fold change vs veh, ZEB2 / RFU, NRIP1 / Fold change vs veh, NRIP1 / RFU, PTTG1IP / Fold change vs veh, PTTG1IP / RFU, CAPN2 / Fold change vs veh, CAPN2 / RFU, MED14 / Fold change vs veh, MED14 / RFU, SNORA58 / Fold change vs veh, SNORA58 / RFU, C1orf63 / Fold change vs veh, C1orf63 / RFU, LRRFIP1 / Fold change vs veh, LRRFIP1 / RFU, NDUFAF7 / Fold change vs veh, NDUFAF7 / RFU, SLC12A2 / Fold change vs veh, SLC12A2 / RFU, IBTK / Fold change vs veh, IBTK / RFU, ESF1 / Fold change vs veh, ESF1 / Fold change vs veh, TMEM50B / RFU, TAOK1 / Fold change vs veh, TAOK1 / RFU, ACBD3 / Fold change vs veh, ACBD3 / RFU, TMA16 / Fold change vs veh, TMA16 / RFU, RWDD3 / Fold change vs veh, RWDD3 / RFU, BCAT1 / Fold change vs veh, BCAT1 / RFU, EDEM3 / Fold change vs veh, EDEM3 / RFU, TMEM33 / Fold change vs veh, TMEM33 / RFU, WDR75 / Fold change vs veh, WDR75 / RFU, AHCTF1 / Fold change vs veh, AHCTF1 / RFU, TFRC / Fold change vs veh, TFRC / RFU, ZDHHC17 / Fold change vs veh, ZDHHC17 / RFU, NOM1 / Fold change vs veh, NOM1 / RFU, ARL8B / Fold change vs veh, ARL8B / RFU, ZBTB11 / Fold change vs veh, ZBTB11 / RFU, TAMM41 / Fold change vs veh, TAMM41 / RFU, KIAA1704 /// LOC100996395 / Fold change vs veh, KIAA1704 /// LOC100996395 / RFU, ING1 / Fold change vs veh, ING1 / RFU, TRMT61B / Fold change vs veh, TRMT61B / RFU, FUBP3 / Fold change vs veh, FUBP3 / RFU, TP53 / Fold change vs veh, TP53 / RFU, TNKS2 / Fold change vs veh, TNKS2 / RFU, ZFP14 / Fold change vs veh, ZFP14 / RFU, ACTR2 / Fold change vs veh, ACTR2 / RFU, PPP3R1 / Fold change vs veh, PPP3R1 / RFU, PIK3R1 / Fold change vs veh, PIK3R1 / RFU, HNRNPA1 / Fold change vs veh, HNRNPA1 / RFU, RNF170 / Fold change vs veh, RNF170 / RFU, ZNF28 / Fold change vs veh, ZNF28 / RFU, RNGTT / Fold change vs veh, RNGTT / RFU, OGT / Fold change vs veh, OGT / RFU, BRD1 / Fold change vs veh, BRD1 / RFU, MARS / Fold change vs veh, MARS / RFU, ZNF655 / Fold change vs veh, ZNF655 / RFU, FAHD1 / Fold change vs veh, FAHD1 / RFU, BDP1 / Fold change vs veh, BDP1 / RFU, LRRCC1 / Fold change vs veh, LRRCC1 / RFU, ARID1A / Fold change vs veh, ARID1A / RFU, ZNF146 / Fold change vs veh, ZNF146 / RFU, ZNF330 / Fold change vs veh, ZNF330 / RFU, GPN3 / Fold change vs veh, GPN3 / RFU, C9orf123 / Fold change vs veh, C9orf123 / RFU, N4BP2L2 / Fold change vs veh, N4BP2L2 / RFU, ARFIP1 / Fold change vs veh, ARFIP1 / RFU, FAM179B / Fold change vs veh, FAM179B / RFU, BCL10 / Fold change vs veh, BCL10 / RFU, UHRF1BP1L / Fold change vs veh, UHRF1BP1L / RFU, BET1 / Fold change vs veh, BET1 / RFU, CNOT2 / Fold change vs veh, CNOT2 / RFU, ZNF268 / Fold change vs veh, ZNF268 / Fold change vs veh, ZNF507 / RFU, DGCR2 / Fold change vs veh, DGCR2 / RFU, WDSUB1 / Fold change vs veh, WDSUB1 / Fold change vs veh, HSP90B1 /// MIR3652 / RFU, ADSS / Fold change vs veh, ADSS / RFU, GK / Fold change vs veh, GK / RFU, ZNF148 / Fold change vs veh, ZNF148 / RFU, TAF9 / Fold change vs veh, TAF9 / RFU, SLC1A5 / Fold change vs veh, SLC1A5 / RFU, SLMO2 / Fold change vs veh, SLMO2 / RFU, ABCC4 / Fold change vs veh, ABCC4 / RFU, LOC101060439 /// RAP1B / Fold change vs veh, LOC101060439 /// RAP1B / RFU, RFX7 / Fold change vs veh, RFX7 / RFU, GTPBP10 / Fold change vs veh, GTPBP10 / RFU, CNEP1R1 / Fold change vs veh, CNEP1R1 / RFU, BIVM-ERCC5 /// ERCC5 / Fold change vs veh, BIVM-ERCC5 /// ERCC5 / RFU, ILF3 / Fold change vs veh, ILF3 / RFU 11762660_at / Fold change /veh 11762660_at / RFU VCAN (11757783_s_at) / Fold change /veh VCAN (11757783_s_at) / RFU DDX43 (11728927_at) / Fold change /veh DDX43 (11728927_at) / RFU KRT8 (11758188_x_at) / Fold change /veh KRT8 (11758188_x_at) / RFU NKD1 (11759106_at) / Fold change /veh NKD1 (11759106_at) / RFU SRD5A1 (11742802_a_at) / Fold change /veh SRD5A1 (11742802_a_at) / RFU TPSAB1 /// TPSB2 (11721975_s_at) / Fold change /veh TPSAB1 /// TPSB2 (11721975_s_at) / RFU GSTM3 (11746129_a_at) / Fold change /veh GSTM3 (11746129_a_at) / RFU IL23R (11737362_x_at) / Fold change /veh IL23R (11737362_x_at) / RFU TMEM51 (11727254_a_at) / Fold change /veh TMEM51 (11727254_a_at) / RFU PIWIL2 (11732686_x_at) / Fold change /veh PIWIL2 (11732686_x_at) / RFU ORM1 (11744905_x_at) / Fold change /veh ORM1 (11744905_x_at) / RFU CCDC152 (11743942_at) / Fold change /veh CCDC152 (11743942_at) / RFU ECM1 (11717891_a_at) / Fold change /veh ECM1 (11717891_a_at) / RFU IL23R (11748794_a_at) / Fold change /veh IL23R (11748794_a_at) / RFU TNFAIP8L3 (11732012_x_at) / Fold change /veh TNFAIP8L3 (11732012_x_at) / RFU MBOAT4 (11741988_at) / Fold change /veh MBOAT4 (11741988_at) / RFU 11764193_at / Fold change /veh 11764193_at / RFU TMEM53 (11763286_at) / Fold change /veh TMEM53 (11763286_at) / RFU MAGEB2 (11727129_at) / Fold change /veh MAGEB2 (11727129_at) / RFU TMEM200A (11744735_a_at) / Fold change /veh TMEM200A (11744735_a_at) / RFU CCDC152 (11751479_a_at) / Fold change /veh CCDC152 (11751479_a_at) / RFU FAM211A (11726209_a_at) / Fold change /veh FAM211A (11726209_a_at) / RFU RGS16 (11746705_a_at) / Fold change /veh RGS16 (11746705_a_at) / RFU VCAN (11755009_s_at) / Fold change /veh VCAN (11755009_s_at) / RFU RHOB (11743442_s_at) / Fold change /veh RHOB (11743442_s_at) / RFU RGS16 (11720943_a_at) / Fold change /veh RGS16 (11720943_a_at) / RFU RGS16 (11720944_at) / Fold change /veh RGS16 (11720944_at) / RFU, VPS4B / Fold change vs veh, VPS4B / RFU, CREB1 / Fold change vs veh, CREB1 / RFU, DNAJC13 / Fold change vs veh, DNAJC13 / RFU, GNAQ / Fold change vs veh, GNAQ / RFU, CDK5R1 / Fold change vs veh, CDK5R1 / RFU, ZRANB3 / Fold change vs veh, ZRANB3 / RFU, CUL4A / Fold change vs veh, CUL4A / RFU, CCNY / Fold change vs veh, CCNY / RFU, UFL1 / Fold change vs veh, UFL1 / RFU, COG3 / Fold change vs veh, COG3 / RFU, DIAPH2 / Fold change vs veh, DIAPH2 / RFU, SKA2 / Fold change vs veh, SKA2 / RFU, AFF3 / Fold change vs veh, AFF3 / RFU, LMF1 / Fold change vs veh, LMF1 / RFU, IPO11 / Fold change vs veh, IPO11 / RFU, DFFB / Fold change vs veh, DFFB / RFU, FOXP1 / Fold change vs veh, FOXP1 / RFU, CARD8 / Fold change vs veh, CARD8 / RFU, STRN3 / Fold change vs veh, STRN3 / RFU, ADK / Fold change vs veh, ADK / RFU, RASSF2 / Fold change vs veh, RASSF2 / RFU, WIPF1 / Fold change vs veh, WIPF1 / RFU, LARP1B / Fold change vs veh, LARP1B / RFU, RASA1 / Fold change vs veh, RASA1 / RFU, RB1 / Fold change vs veh, RB1 / RFU, PPFIA1 / Fold change vs veh, PPFIA1 / RFU, MAT2A / Fold change vs veh, MAT2A / RFU, CCT5 / Fold change vs veh, CCT5 / RFU, WDR92 / Fold change vs veh, WDR92 / RFU, CUX1 / Fold change vs veh, CUX1 / RFU, TTC7A / Fold change vs veh, TTC7A / RFU, TMEM135 / Fold change vs veh, TMEM135 / RFU, DEPTOR / Fold change vs veh, DEPTOR / RFU, CPM / Fold change vs veh, CPM / RFU, DNAJB6 / Fold change vs veh, DNAJB6 / RFU, CACNA2D3 / Fold change vs veh, CACNA2D3 / RFU, DTX4 / Fold change vs veh, DTX4 / RFU, TFCP2 / Fold change vs veh, TFCP2 / RFU, GMCL1 /// GMCL1P1 / Fold change vs veh, GMCL1 /// GMCL1P1 / RFU, AEBP2 / Fold change vs veh, AEBP2 / RFU, SNHG1 /// SNORD22 /// SNORD25 /// SNORD26 /// SNORD27 /// SNORD28 /// SNORD29 /// SNORD31 / Fold change vs veh, SNHG1 /// SNORD22 /// SNORD25 /// SNORD26 /// SNORD27 /// SNORD28 /// SNORD29 /// SNORD31 / Fold change (Aza/veh), C12orf56 (ProbeSet 11735607_a_at) / Fold change (ACY-1035/veh), C12orf56 (ProbeSet 11735607_a_at) / Fold change (Aza/veh), FGFR1OP (ProbeSet 11751329_s_at) / Fold change (ACY-1035/veh), FGFR1OP (ProbeSet 11751329_s_at) / Fold change (Aza/veh), VPS36 (ProbeSet 11739960_a_at) / Fold change (ACY-1035/veh), VPS36 (ProbeSet 11739960_a_at) / RFU SYPL1 (11715823_x_at) / Fold change /veh SYPL1 (11715823_x_at) / RFU IGFBP7 (11715501_s_at) / Fold change /veh IGFBP7 (11715501_s_at) / RFU REEP3 (11722064_at) / Fold change /veh REEP3 (11722064_at) / RFU IGLL1 (11728026_x_at) / Fold change /veh IGLL1 (11728026_x_at): dose or concentration left out as unconfirmed. The following applies: ProbeSet 11722463_a_at; LIST B.

`Nc1ccc(-c2cccs2)cc1NC(=O)c1ccc2c(c1)cc(C1CC1)n2CCN1CCOCC1` [ACY-1035]: the “Fold change vs veh, TNKS2” value is given as 0.96.

Values taken from article PMC5218480 (PLoS ONE, 2017).
